Measurements as given in US9056111B1, “Selective efflux inhibitors and related pharmaceutical compositions and methods of treatment” (STC.UNM, priority 2011, dated 2015).
Where “and” joins values, the source holds several entries; their conditions need not be identical. Identical values can stand only once. Like-named read-outs stand apart in the source and are kept apart here.

Assays:
[1] = target: ABCB1 (Homo sapiens, UniProt P08183); assay: JC-1 efflux inhibition dose response, flow cytometry, Jurkat-DNR cells; conditions: Jurkat-DNR cells over-expressing ABCB1, averages of two to four replicates
Outline: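 Jurkat-DNR cells pre-stained with 1 μM JC-1 were incubated with compound (final 50 μM to 69 nM, […]) at 1×10^6 cells/mL, rotated 30 min at 25° C. Retained JC-1 read by flow cytometry (488 nm excitation, 530/40 nm emission). Curves fitted to a four-parameter logistic.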

[2] = target: T1, ABCG2 (Homo sapiens, UniProt Q9UNQ0); assay: JC-1 efflux inhibition dose response, flow cytometry, Ig-MXP3 cells; conditions: for ~Fold G2 Selective (B1/G2): quotient of average ABCB1 IC50 and average ABCG2 IC50, efflux assay
T1 sequence (Q9UNQ0 1-655): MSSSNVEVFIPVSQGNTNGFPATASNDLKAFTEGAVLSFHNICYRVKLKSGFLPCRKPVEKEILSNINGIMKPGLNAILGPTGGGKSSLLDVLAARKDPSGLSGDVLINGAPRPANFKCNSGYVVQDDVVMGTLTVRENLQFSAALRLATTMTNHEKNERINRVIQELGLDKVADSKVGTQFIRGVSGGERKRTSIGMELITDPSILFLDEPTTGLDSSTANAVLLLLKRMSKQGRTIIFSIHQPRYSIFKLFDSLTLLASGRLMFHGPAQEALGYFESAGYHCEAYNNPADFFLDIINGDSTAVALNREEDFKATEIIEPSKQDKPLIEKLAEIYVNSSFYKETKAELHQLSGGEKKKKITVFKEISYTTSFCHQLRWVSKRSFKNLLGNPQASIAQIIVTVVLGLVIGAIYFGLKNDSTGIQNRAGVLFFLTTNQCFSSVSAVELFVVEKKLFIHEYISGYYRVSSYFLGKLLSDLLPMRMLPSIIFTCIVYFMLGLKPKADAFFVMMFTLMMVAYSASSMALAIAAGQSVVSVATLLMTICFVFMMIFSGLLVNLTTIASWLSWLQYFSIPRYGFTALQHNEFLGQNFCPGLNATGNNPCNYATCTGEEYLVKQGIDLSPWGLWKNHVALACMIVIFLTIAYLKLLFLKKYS
Outline: (§1)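 Ig-MXP3 (ABCG2) and Jurkat-DNR (ABCB1) cells, run separately, are pre-stained with 1 μM JC-1 and added to compound in PBS; retained dye is read by high-throughput flow cytometry with time-gated analysis.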

[3] = tested on: ABCB1 over-expressing Jurkat-DNR cells; assay: Chemoreversal assay: potentiation of daunorubicin (DNR) killing; type: cell-based; conditions: constant 100 nM DNR, varied inhibitor dose, read-out: CR50 ABCB1
[4] = tested on: ABCG2 over-expressing Ig-MXP3 cells; assay: Chemoreversal assay: potentiation of mitoxantrone (MTX) killing; type: cell-based; conditions: Ig-MXP3 cells, constant 30 nM MTX, varied inhibitor dose, read-out: CR50 ABCG2
[5] = tested on: Jurkat-DNR cells; assay: Direct cytotoxicity (Toxic Dose 50) without chemotherapeutic
Procedure: Cells (ABCB1, Jurkat-DNR or ABCG2 Ig-MXP3) are incubated with the test compound (3 order of magnitude concentration range) over a 3-day and 7-day period in the presence of the inhibitor and chemotherapeutic (ABCB1, DNR or ABCG2 MTX), such that a cell concentration of at least 1×10^5 cells/mL is maintained. Cell viability is determined by trypan blue staining and enumeration under light microscopy. […] A chemoreversal index (Chemoreversal 50, CR50) is determined from the viability assessment. Using a similar approach, a direct cytotoxicity index (Toxic Dose 50, TD50) is determined by assessment of cell death of cells grown in media alone.
Cells (ABCB1, Jurkat-DNR or ABCG2 Ig-MXP3) were incubated with the test compound in a 3 order of magnitude concentration range over three and seven day periods in the presence of the inhibitor and chemotherapeutic (ABCB1, 100 nM DNR or ABCG2 30 nM MTX), such that a cell concentration of at least 1×10^5 cells mL^−1 was maintained. Cell viability was determined by trypan blue staining and enumeration under light microscopy. […] A chemoreversal index (Chemoreversal 50, CR50) was determined from the viability assessment. Using a similar approach, a direct cytotoxicity index (Toxic Dose 50, TD50) was determined by assessment of cell death of cells grown in media alone.

[6] = tested on: Ig-MXP3 cells; assay: as above; type: cell-based
[7] = target: T2, ABCB1 / ABCG2 (Homo sapiens, UniProt Q9UNQ0); assay: JC-1 efflux inhibition dose response, flow cytometry, Ig-MXP3 cells; conditions: human, probe JC-1 (1 µM), ~Fold G2 Selective (B1/G2), quotient of average ABCB1 IC50 and average ABCG2 IC50, efflux assay
T2 sequence (Q9UNQ0 1-655): T1 sequence (Q9UNQ0 1-655)
Outline: as §1

[8] = IC50 ABCB1 (efflux inhibition of JC-1 substrate)
[9] = Jurkat-DNR cells, inhibitor without chemotherapeutic
[10] = Ig-MXP3 cells, inhibitor without chemotherapeutic

ABCB1, sequence (P08183 whole entry): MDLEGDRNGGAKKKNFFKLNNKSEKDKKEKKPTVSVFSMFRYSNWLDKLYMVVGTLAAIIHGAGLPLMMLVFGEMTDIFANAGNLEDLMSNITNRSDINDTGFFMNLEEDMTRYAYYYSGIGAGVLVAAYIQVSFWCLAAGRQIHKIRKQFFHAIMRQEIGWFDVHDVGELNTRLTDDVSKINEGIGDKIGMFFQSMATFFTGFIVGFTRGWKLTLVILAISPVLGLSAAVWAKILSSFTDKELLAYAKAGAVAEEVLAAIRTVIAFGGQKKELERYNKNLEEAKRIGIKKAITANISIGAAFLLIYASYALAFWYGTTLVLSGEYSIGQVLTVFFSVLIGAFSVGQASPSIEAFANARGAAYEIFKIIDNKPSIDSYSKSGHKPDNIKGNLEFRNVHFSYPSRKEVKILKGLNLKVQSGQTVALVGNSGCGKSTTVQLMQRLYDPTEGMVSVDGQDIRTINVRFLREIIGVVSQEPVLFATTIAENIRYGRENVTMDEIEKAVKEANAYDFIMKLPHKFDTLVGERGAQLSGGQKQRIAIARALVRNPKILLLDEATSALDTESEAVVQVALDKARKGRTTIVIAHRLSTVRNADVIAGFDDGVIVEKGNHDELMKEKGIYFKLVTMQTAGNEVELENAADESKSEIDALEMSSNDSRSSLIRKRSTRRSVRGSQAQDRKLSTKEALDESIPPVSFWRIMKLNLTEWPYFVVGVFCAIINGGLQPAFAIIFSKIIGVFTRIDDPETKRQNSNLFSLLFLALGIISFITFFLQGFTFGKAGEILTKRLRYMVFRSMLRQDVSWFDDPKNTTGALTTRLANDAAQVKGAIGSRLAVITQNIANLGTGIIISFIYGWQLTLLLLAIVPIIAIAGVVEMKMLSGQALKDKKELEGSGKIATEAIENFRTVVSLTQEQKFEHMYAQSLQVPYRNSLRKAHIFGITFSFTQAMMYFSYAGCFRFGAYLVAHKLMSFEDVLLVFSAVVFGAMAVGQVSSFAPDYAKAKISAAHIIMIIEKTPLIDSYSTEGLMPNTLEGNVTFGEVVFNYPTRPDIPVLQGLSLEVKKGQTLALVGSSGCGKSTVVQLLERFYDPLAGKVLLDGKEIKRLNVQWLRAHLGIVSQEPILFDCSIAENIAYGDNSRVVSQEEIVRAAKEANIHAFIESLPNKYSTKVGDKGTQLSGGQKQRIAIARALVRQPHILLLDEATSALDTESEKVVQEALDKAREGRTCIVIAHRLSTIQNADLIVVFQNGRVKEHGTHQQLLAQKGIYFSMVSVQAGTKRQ

Row | Structure (SMILES) | IC50 ([1]; read-out: IC50 ABCB1 (efflux inhibition of JC-1 substrate), listed as reversan) | IC50 ([2]; read-out: IC50 ABCG2 (efflux inhibition of JC-1 substrate), Ig-MXP3 cells over-expressing ABCG2, averages of two to four replicates, listed as reversan) | EC50 ([3]; listed as reversan) [nM] | EC50 [3] [nM] | EC50 ([4]; listed as reversan) [nM] | EC50 [4] [nM] | TD50 ABCB1 [5] [µM] | TD50 ABCG2 [6] [µM] | IC50 [1, 8] | selectivity ratio at 30 min [7] | IC50 [2] [nM] | TD50 ABCB1 [5, 9] [µM] | TD50 ABCG2 [6, 10] [µM] | IC50 ([1]; read-out: IC50 ABCB1 (efflux inhibition of JC-1 substrate)) [µM] | ~Fold G2 Selective (B1/G2) [2] [fold] | IC50 ([2]; read-out: IC50 ABCG2 (efflux inhibition of JC-1 substrate), Ig-MXP3 cells over-expressing ABCG2, averages of two to four replicates) [nM]
1 | O=C(NCCCN1CCOCC1)c1cnn2c(-c3ccccc3)cc(-c3ccccc3)nc12 [Compound 6, reference compound] | 4.4 µM and 4.41 µM | 800 nM and 840 nM | 2200 | 220 | 3600 | 3610 | 7.04 | >100 |  |  |  |  |  |  |  | 
2 | COc1cccc(C(=O)N2CCN(c3cc(-c4ccccc4)nc4cc(-c5cccc(Cl)c5)nn34)CC2)c1 [Compound 15] |  |  |  | 350 |  | 210 |  |  | 2.64 ± 0.64 µM | 0.6 | 4450 ± 4680 | >100 | >100 |  |  | 
3 | O=C(c1cccnc1)N1CCN(c2cc(-c3ccccc3)nc3cc(-c4cccc(Cl)c4)nn23)CC1 [Compound 20] |  |  |  | 170 |  | 130 |  |  | 0.57 ± 0.08 µM | 2.5 | 230 ± 150 | 4.72 | 10.30 |  |  | 
4 | O=C(c1ccncc1)N1CCN(c2cc(-c3ccccc3)nc3cc(-c4cccc(Cl)c4)nn23)CC1 [Compound 21] |  |  |  | 250 |  | 150 |  |  | 1.16 ± 0.3 µM | 1.1 | 1030 ± 230 | 10.90 | 28.30 |  |  | 
5 | O=C(Cc1ccccc1)N1CCN(c2cc(-c3ccccc3)nc3cc(-c4cccc(Cl)c4)nn23)CC1 [Compound 24] |  |  |  | 510 |  | 600 |  |  | 4.68 ± 2.69 µM | 0.8 | 5760 ± 3400 | 17.80 | >100 |  |  | 
6 | O=C(c1ccoc1)N1CCN(c2cc(-c3cccnc3)nc3cc(-c4cccc(Cl)c4)nn23)CC1 [Compound 30] |  |  |  | 200 |  | 20 |  |  | 0.77 ± 0.28 µM | 2.9 | 270 ± 120 | 5.33 | 5.77 |  |  | 
7 | O=C(c1ccoc1)N1CCN(c2cc(-c3ccncc3)nc3cc(-c4cccc(Cl)c4)nn23)CC1 [Compound 31] |  |  |  | 600 |  | 890 |  |  | 3.68 ± 0.35 µM | 2.5 | 1460 ± 350 | 13.50 | 57.80 |  |  | 
8 | COc1ccccc1-c1cc2nc(-c3ccccc3)cc(N3CCN(C(=O)c4ccoc4)CC3)n2n1 [Compound 34] |  |  |  | 450 |  | 490 |  |  | 2.17 ± 0.76 µM | 4.8 | 450 ± 170 | 4.37 | 6.50 |  |  | 
9 | COc1ccc(-c2cc3nc(-c4ccccc4)cc(N4CCN(C(=O)c5ccoc5)CC4)n3n2)cc1 [Compound 36] |  |  |  | 230 |  | 380 |  |  | 1.44 ± 0.7 µM | 1.2 | 1160 ± 660 | 5.54 | >100 |  |  | 
10 | COc1ccccc1-c1cc(N2CCN(C(=O)c3ccoc3)CC2)n2nc(-c3ccccc3)cc2n1 [Compound 44] |  |  |  | 170 |  | 680 |  |  | 4.52 µM and 4.62 µM | 1.2 | 3660 ± 2540 | 3.73 | 7.62 |  |  | 
11 | O=C(c1ccoc1)N1CCN(c2cc(-c3ccco3)nc3cc(-c4ccco4)nn23)CC1 [Compound 52] |  |  |  | 190 |  | 1210 |  |  | 1.7 µM | 0.7 | 2350 | 1.93 | >100 |  |  | 
12 | O=C(c1ccoc1)N1CCN(c2cc(-c3ccco3)nc3cc(-c4cccc(Cl)c4)nn23)CC1 [Compound 53] |  |  |  | 530 |  | 1380 |  |  | 6.42 µM | 2.5 | 2550 | 8.53 | 10.80 |  |  | 
13 | COc1cccc(-c2cc3nc(-c4ccco4)cc(N4CCN(C(=O)c5ccoc5)CC4)n3n2)c1 [Compound 56] |  |  |  | 470 |  | 1000 | 5.52 | >100 |  |  |  |  |  | 7.4 | 3.3 | 2260
14 | COc1ccc(-c2cc3nc(-c4ccco4)cc(N4CCN(C(=O)c5ccoc5)CC4)n3n2)cc1 [Compound 57] |  |  |  | 5770 |  | 760 |  |  | 3.45 µM | 3.9 | 890 | >100 | >100 |  |  | 
15 | O=C(c1ccoc1)N1CCN(c2cc(-c3ccoc3)nc3cc(-c4ccccc4)nn23)CC1 [Compound 61] |  |  |  | 420 |  | 760 |  |  | 1.6 µM | 1.1 | 1400 | 7.33 | 18.30 |  |  | 
16 | COc1cccc(-c2cc(N3CCN(C(=O)c4ccoc4)CC3)n3nc(-c4ccccc4)cc3n2)c1 [Compound 65] |  |  |  | 180 |  | 680 |  |  | 16.4 µM | 83 | 200 | 5.77 | 67.80 |  | 82.1 | 
